Assay results published in patent US20150196520A1, “METHOD AND PHARMACEUTICAL COMPOSITION FOR TREATING DERMATOPHYTOSIS” (priority 2012, published 2015).

Assays:
[1] = tested on: T. mentagrophytes IFM 59813; experiment: CLSI broth microdilution drug-sensitivity test; type: cell-based, Trichophyton mentagrophytes; conditions: Trichophyton mentagrophytes, IFM59813
Procedure: The antimicrobial activity of the pharmaceutical composition for dermatomycosis according to the present invention was evaluated through drug-susceptibility tests against major pathogenic fungi performed in compliance with the guidelines of the Clinical Laboratory Standards Institute (CLSI), USA. The pathogenic fungi selected were genus Tricophyton (T. rubrum, T. mentagrophytes, T. tonsurans), genus Microsporum (M. gypseum), genus Epidermophyton (E. floccosum), genus Candida (C. albicans), genus Aspergillus (A. fumigatus), and genus Cryptococcus (C. neoformans). […] In the drug-susceptibility tests, Mg ions and Ca ions necessary for conidia (spores) of the fungus to germinate growth were included in the nutrient medium.
The antifungal activity of the compounds of the present invention was evaluated by performing drug-sensitivity tests against various pathogenic fungi. The testing method was a broth microdilution method in conformance with the guidelines of the Clinical Laboratory Standards Institute (CLSI), USA.

tinea corporis = experiment: Topical treatment of tinea corporis, case reports; type: in vivo, humans; conditions: Example 10: 0.01% test solution in 20% ethanol sprayed three times a day, thigh
Excerpt: The compounds of the present invention were investigated with respect to the treatment of dermatomycosis affecting humans. […] The cases of tinea used in the investigation involved selection of various types of tinea such as vesicular-type tinea, interdigital-type tinea, hyperkeratotic tinea, tinea corporis, tinea unguium, etc.
The dermatophytes that cause dermatophytosis, a typical form of dermatomycosis, are mainly Trichophyton rubrum and Trichophyton mentagrophytes. […] This confirmation of dermatophytes involved planting a sample of skin or nail of an area affected with tinea in a Candida nutrient medium (Nissui Pharmaceutical Co., Ltd.), isolating the dermatophytes that grow, and then confirming the dermatophytes through gene analysis or observation of morphology. A more detailed description of the fungus identification is provided in the examples.
A 1% test solution of ethylenediaminetetraacetic acid trisodium salt prepared in the same manner as Example 6 was applied by spraying once a day onto an area, approximately 5 cm wide and 3 cm long, of a chest affected by tinea corporis, which was denoted by flaring redness.
To 119 mg of ethylenediaminetetraacetic acid tetrasodium salt tetrahydrate was added 20% ethanol to prepare 1 L of 0.01% test solution. This test solution was applied by spraying, three times a day, to tinea corporis denoted by red flaring ridges that had occurred on the thigh.

tinea unguium = experiment: Treatment of tinea unguium, case reports; type: in vivo, humans; conditions: Example 11: 2% test solution, big toe immersed in fingerstall; Trichophyton rubrum
interdigital tinea = conditions: Example 7: 2% test solution sprayed once daily between toes; Trichophyton rubrum

O=C([O-])CN(CCN(CC(=O)[O-])CC(=O)[O-])CC(=O)[O-].[Na+].[Na+].[Na+].[Na+] [ethylenediaminetetraacetic acid tetrasodium salt]
MIC [1]: 39 µg/mL
time until redness disappeared (tinea cured) (tinea corporis): approximately 2 weeks
time until healthy nail grew from the nail base (tinea unguium): approximately 2 months
time until recovery complete with a healthy nail (tinea unguium): 6 months
time until skin symptoms disappeared and healthy skin returned (interdigital tinea): approximately 2 months
